According to ChEMBL document CHEMBL4020755, “Design, synthesis, and biological evaluation of deuterated apalutamide with improved pharmacokinetic profiles” (Bioorg Med Chem Lett, 2017):

Tests used:
Format in all cases: ADME, organism-based
Settings in all cases: in vivo, po
[1] = AUC (0 to 24 hrs) in Balb/c mouse at 10 mg/kg administered orally measured up to 24 hrs by LC-MS/MS analysis; design: dose 10 mg/kg, time < 24 hr, route oral
[2] = Half life in Balb/c mouse at 10 mg/kg administered orally measured up to 24 hrs by LC-MS/MS analysis
[3] = Tmax in Balb/c mouse at 10 mg/kg administered orally measured up to 24 hrs by LC-MS/MS analysis
[4] = Cmax in Balb/c mouse at 10 mg/kg administered orally measured up to 24 hrs by LC-MS/MS analysis; design: dose 10 mg/kg, route oral
[5] = Half life in Sprague-Dawley rat 10 mg/kg administered orally measured up to 24 hrs by LC-MS/MS analysis
[6] = AUC (0 to infinity) in Sprague-Dawley rat at 10 mg/kg administered orally measured up to 24 hrs by LC-MS/MS analysis; design: dose 10 mg/kg, route oral, time infinity
[7] = Mean residence time in Sprague-Dawley rat 10 mg/kg administered orally measured up to 24 hrs by LC-MS/MS analysis
[8] = Cmax in Sprague-Dawley rat at 10 mg/kg administered orally measured up to 24 hrs by LC-MS/MS analysis; design: dose 10 mg/kg, route oral

Compound	AUC(0-t) at 24 h [1] [ng·h/mL]	half-life [2] [h]	Tmax [3] [h]	Cmax [4] [ng/mL]	half-life [5] [h]	AUC(0-inf) [6] [ng·h/mL]	MRT [7] [h]	Cmax [8] [ng/mL]
[2H]C1([2H])CC([2H])([2H])C12C(=O)N(c1cnc(C#N)c(C(F)(F)F)c1)C(=S)N2c1ccc(C(=O)NC)c(F)c1	41100	32.3	6	2170	–	–	–	–
[2H]c1cc(C(=O)NC([2H])([2H])[2H])c(F)c([2H])c1N1C(=S)N(c2cnc(C#N)c(C(F)(F)F)c2)C(=O)C12CCC2	80600	54.9	4	3940	–	–	–	–
[2H]c1cc(C(=O)NC)c(F)c([2H])c1N1C(=S)N(c2cnc(C#N)c(C(F)(F)F)c2)C(=O)C12CCC2	63800	6.6	6	3480	–	–	–	–
[2H]C([2H])([2H])NC(=O)c1ccc(N2C(=S)N(c3cnc(C#N)c(C(F)(F)F)c3)C(=O)C23CCC3)cc1F	87800	32.3	4	4480	8.9	28700	13	1700
CNC(=O)c1ccc(N2C(=S)N(c3cnc(C#N)c(C(F)(F)F)c3)C(=O)C23CCC3)cc1F [APALUTAMIDE]	61600	5.9	6	3320	7.4	14800	10.7	946
